≈ marks a conversion by molar mass, not a printed value. Where “and” joins values, the source holds several entries; their conditions need not be identical. Equal entries are not always repeated. Bridge positions count the residues as written; N and C are the ends. Square brackets hold non-standard residues; d marks the D form. Peptide text beside a SMILES is read from it. * marks the point of attachment. Hydrocinnamoyl = O=C(CCc1ccccc1)*; dCha = N[C@H](CC1CCCCC1)C(=O)O; Orn = NCCC[C@H](N)C(=O)O
How the values were obtained:
[1] = Solubility of the peptide in water; type: physicochemical; details: method not described
[2] = mice, cited from earlier work
Text: The hexapeptide, phenylpropanoic acid-[ornithine-proline-d-cyclohexylalanine-tryptophan-arginine] (HC-[OPdChaWR]) is an antagonist of the C5a receptor 1 (C5aR1) of the innate immune complement cascade.

[3] = Plasma pharmacokinetics after a single IV dose in mice; type: in vivo; details: male C57BL/6J mice, LC-MS/MS
Experimental: The C5aR1 peptide antagonist concentrations were quantified by a previously developed and validated LC–MS/MS method. Briefly, the LC–MS/MS system consisted of an API 3200 (AB SCIEX) triple quadrupole LC–MS/MS mass spectrometer coupled with an Agilent 1200 series HPLC system (Agilent Technologies, Santa Clara CA, USA). For sample processing, 10 µL of the solution containing the C5aR1 peptide antagonist was mixed with 10 µL of internal standard (AcF-[OPdChaWR]) dissolved in solvent (ACN) followed by sample processing, extraction, supernatant isolation, drying, and reconstitution in a 75% methanol-in-water solution. A small volume of processed sample (approximately 50 µL) was used for the LC–MS measurement. The autosampler was set at 4 °C and the column oven temperature was maintained in the range of 25 ± 1 °C. The system control and data acquisition were executed by Analyst software (AB SCIEX, Applied Biosystems Inc., Framingham, MA, USA, version 1.5.1). Chromatographic separation was implemented using a Kinetex EVO C18 analytical column (100 mm × 2.1 mm, 100 Å, 5 µm, Phenomenex Inc., Torrance, CA, USA) under binary gradient conditions using mobile phase A (milliQ water containing 0.1% formic acid) and mobile phase B (acetonitrile containing 0.1% formic acid) with a variable flow rate, as described in Kumar et al..
The plasma pharmacokinetic (PK) profile and biodistribution of peptide-loaded nanoparticles (1 mg/kg equivalent dose of free peptide) vs. free peptide were assessed in mice after intravenous (IV; via tail vein) dosing. Serial blood samples were collected via a tail vein using a microsampling technique. Blood samples were collected at 0.04, 0.25, 0.5, 0.75, 1, 1.5, […], 4, 6, and 24 h for both groups and then 48, 72, 96, and 120 h for the nanoparticle group. The blood samples were centrifuged at 2000× g for 10 min at 4 °C, and the separated plasma samples (10 µL) were collected, diluted with 100 µL of milliQ water and 10 µL of internal standard, filtered through Microcon®-10 centrifugal filters (Merck, Melbourne, VIC, Australia) to separate nanoparticles from released peptide, and stored at −80 °C until time of analysis. For tissue distribution, on the terminal day, i.e., day 1 for native peptide and day 5 for the nanoparticle group, animals were transcardially perfused using PBS solution to remove circulatory peptide/formulation, and tissue samples were collected, processed as described in our previously published method, and filtered as mentioned above.
On the day of analysis, samples were processed for C5aR1 peptide antagonist concentrations using the above-mentioned LC–MS/MS method as described previously. […]

Question: For `N=C(N)NCCC[C@@H]1NC(=O)[C@H](Cc2c[nH]c3ccccc23)NC(=O)[C@@H](CC2CCCCC2)NC(=O)[C@@H]2CCCN2C(=O)[C@@H](NC(=O)CCc2ccccc2)CCCNC1=O` [HC-[OPdChaWR], phenylpropanoic acid-[ornithine-proline-d-cyclohexylalanine-tryptophan-arginine]] (Hydrocinnamoyl-[Orn]P[dCha]WR; lactam 1-C), which solubility in water [1] is on record?
Answer: Its solubility in water is 1000 µg/mL (≈ 1190 µM).

Question: And the “plasma half-life in vivo” value ([2]; intravenous (IV) injection)?
Answer: The value was 10.2 min.

Question: And the “t1/2 values reported previously” value ([2]; listed as free peptide)?
Answer: The value was 10.2 min and 19.8 min.

Question: What about the “time for which plasma peptide levels are measurable after dosing” value ([3]; single IV 1 mg/kg peptide equivalent, plasma) of the same compound?
Answer: Its value is “unmeasurable after 6 h post-dosing”.

Question: What about the MRT ([3]; mouse, single IV 1 mg/kg peptide equivalent, plasma, two-compartmental model, n = 4, read-out: mean residence time (MRT)) of the same compound?
Answer: The MRT was 45.6 min.

Question: And the AUC(0-t) ([3]; mouse, single IV 1 mg/kg, plasma, linear trapezoidal rule, n = 4, read-out: systemic exposure (AUC0-t))?
Answer: Its AUC(0-t) is 3830 ng·h/mL.

Question: What about the half-life ([3]; mouse, single IV (tail vein) 1 mg/kg peptide equivalent, plasma filtered (Microcon-10) so released peptide is measured, two-compartmental model, n = 4, read-out: terminal elimination half-life (t1/2) (converted)) of the same compound?
Answer: Its half-life is 50.4 min.
